Reference: article PMC11897524 (Frontiers in Pharmacology, 2025)

Legend:
Assay in all cases: SelectScreen Z′-LYTE kinase assay
Assay type in all cases: biochemical
ROS1 = ROS1 (Homo sapiens, UniProt P08922)
Experimental: (§1) The kinase selectivity profile of BST-4 was performed by the SelectScreen kinase profiling service (Thermo Fisher Scientific). Kinase selectivity assay was performed using Z′-LYTE ™ screening protocol kit. Briefly, the test compounds were screened in 1% DMSO (final). For 10-point titrations, perform a 3-fold dilution starting at a starting concentration of 50 µM. Then 2.5 µL 4× test compound, 2.4 µL kinase buffer, 5 µL 2× kinase mixture and 2.5 µL 4× ATP solution was added in black 384-well plate. After shaking for 30 s, the plates were incubated for 60 min at room temperature. Add developing reagent solution and shake the plate for 30 s, then incubate for 1 h at room temperature. The Fluorescence intensity per well was read using a fluorescence plate reader. SelectScreen® Kinase Profiling Service used XLfit from IDBS. The dose response curve was curve fit to model number 205 (sigmoidal dose-response model) and inhibition rates were calculated. 50% inhibition was used as a activity threshold. IC50 values were calculated based on curve fitting.

JAK1 = JAK1 (Homo sapiens, UniProt P23458)
Experimental: as §1

BTK = BTK (Homo sapiens, UniProt Q06187)
Experimental: as §1

NTRK2 = NTRK2 (Homo sapiens, UniProt Q16620)
Experimental: as §1

LTK = LTK (Homo sapiens, UniProt P29376)
Experimental: as §1

ZAP70 = ZAP70 (Homo sapiens, UniProt P43403)
Experimental: as §1

EPHB4 = EPHB4 (Homo sapiens, UniProt P54760)
Experimental: as §1

LYN = LYN (Homo sapiens, UniProt P07948)
Experimental: as §1

SRMS = SRMS (Homo sapiens, UniProt Q9H3Y6)
Experimental: as §1

EPHB3 = EPHB3 (Homo sapiens, UniProt P54753)
Experimental: as §1

FES = FES (Homo sapiens, UniProt P07332)
Experimental: as §1

EPHB2 = EPHB2 (Homo sapiens, UniProt P29323)
Experimental: as §1

FGFR2 = FGFR2 (Homo sapiens, UniProt P21802)
Experimental: as §1

FGR = FGR (Homo sapiens, UniProt P09769)
Experimental: as §1

EPHA5 = EPHA5 (Homo sapiens, UniProt P54756)
Experimental: as §1

TYRO3 = TYRO3 (Homo sapiens, UniProt Q06418)
Experimental: as §1

MERTK = MERTK (Homo sapiens, UniProt Q12866)
Experimental: as §1

EPHA2 = EPHA2 (Homo sapiens, UniProt P29317)
Experimental: as §1

JAK3 = JAK3 (Homo sapiens, UniProt P52333)
Experimental: as §1

EPHA7 = EPHA7 (Homo sapiens, UniProt Q15375)
Experimental: as §1

HCK = HCK (Homo sapiens, UniProt P08631)
Experimental: as §1

FLT3 = FLT3 (Homo sapiens, UniProt P36888)
Experimental: as §1

FLT4 = FLT4 (Homo sapiens, UniProt P35916)
Experimental: as §1

FGFR4 = FGFR4 (Homo sapiens, UniProt P22455)
Experimental: as §1

EPHA3 = EPHA3 (Homo sapiens, UniProt P29320)
Experimental: as §1

PTK2 = PTK2 (Homo sapiens, UniProt Q05397)
Experimental: as §1

BLK = BLK (Homo sapiens, UniProt P51451)
Experimental: as §1

ABL1 = ABL1 (Homo sapiens, UniProt P00519)
Experimental: as §1

SYK = SYK (Homo sapiens, UniProt P43405)
Experimental: as §1

AXL = AXL (Homo sapiens, UniProt P30530)
Experimental: as §1

RET = RET (Homo sapiens, UniProt P07949)
Experimental: as §1

TNK2 = TNK2 (Homo sapiens, UniProt Q07912)
Experimental: as §1

Sequence of ABL1 (P00519 whole entry): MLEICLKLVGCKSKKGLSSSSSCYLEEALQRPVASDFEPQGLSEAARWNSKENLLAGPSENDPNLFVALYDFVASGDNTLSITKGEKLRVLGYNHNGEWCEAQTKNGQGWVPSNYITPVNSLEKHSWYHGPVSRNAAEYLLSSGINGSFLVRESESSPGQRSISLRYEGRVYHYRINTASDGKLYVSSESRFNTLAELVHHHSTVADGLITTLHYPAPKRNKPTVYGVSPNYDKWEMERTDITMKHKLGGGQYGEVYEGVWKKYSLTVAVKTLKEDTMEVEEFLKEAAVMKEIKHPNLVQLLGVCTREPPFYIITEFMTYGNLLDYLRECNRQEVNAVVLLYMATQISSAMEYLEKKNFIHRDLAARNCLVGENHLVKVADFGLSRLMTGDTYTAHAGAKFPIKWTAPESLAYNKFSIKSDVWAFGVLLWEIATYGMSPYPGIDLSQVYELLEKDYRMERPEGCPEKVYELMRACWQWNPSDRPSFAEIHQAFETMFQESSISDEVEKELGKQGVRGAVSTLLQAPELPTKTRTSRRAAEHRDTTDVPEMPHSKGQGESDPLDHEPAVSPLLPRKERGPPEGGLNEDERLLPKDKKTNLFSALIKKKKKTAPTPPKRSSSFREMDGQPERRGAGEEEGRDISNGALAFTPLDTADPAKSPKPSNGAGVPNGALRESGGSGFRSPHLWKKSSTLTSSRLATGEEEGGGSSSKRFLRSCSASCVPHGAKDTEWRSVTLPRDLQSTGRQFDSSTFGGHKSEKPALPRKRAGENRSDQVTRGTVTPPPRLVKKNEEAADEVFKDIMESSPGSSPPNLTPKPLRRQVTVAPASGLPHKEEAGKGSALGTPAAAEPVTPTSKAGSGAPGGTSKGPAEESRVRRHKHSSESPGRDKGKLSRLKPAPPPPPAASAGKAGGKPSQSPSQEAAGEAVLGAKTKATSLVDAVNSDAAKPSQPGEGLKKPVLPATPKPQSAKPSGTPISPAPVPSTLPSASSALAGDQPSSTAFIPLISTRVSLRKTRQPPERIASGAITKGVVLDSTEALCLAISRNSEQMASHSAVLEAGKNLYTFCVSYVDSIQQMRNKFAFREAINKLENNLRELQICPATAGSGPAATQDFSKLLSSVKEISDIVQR
Sequence of JAK1 (P23458 whole entry): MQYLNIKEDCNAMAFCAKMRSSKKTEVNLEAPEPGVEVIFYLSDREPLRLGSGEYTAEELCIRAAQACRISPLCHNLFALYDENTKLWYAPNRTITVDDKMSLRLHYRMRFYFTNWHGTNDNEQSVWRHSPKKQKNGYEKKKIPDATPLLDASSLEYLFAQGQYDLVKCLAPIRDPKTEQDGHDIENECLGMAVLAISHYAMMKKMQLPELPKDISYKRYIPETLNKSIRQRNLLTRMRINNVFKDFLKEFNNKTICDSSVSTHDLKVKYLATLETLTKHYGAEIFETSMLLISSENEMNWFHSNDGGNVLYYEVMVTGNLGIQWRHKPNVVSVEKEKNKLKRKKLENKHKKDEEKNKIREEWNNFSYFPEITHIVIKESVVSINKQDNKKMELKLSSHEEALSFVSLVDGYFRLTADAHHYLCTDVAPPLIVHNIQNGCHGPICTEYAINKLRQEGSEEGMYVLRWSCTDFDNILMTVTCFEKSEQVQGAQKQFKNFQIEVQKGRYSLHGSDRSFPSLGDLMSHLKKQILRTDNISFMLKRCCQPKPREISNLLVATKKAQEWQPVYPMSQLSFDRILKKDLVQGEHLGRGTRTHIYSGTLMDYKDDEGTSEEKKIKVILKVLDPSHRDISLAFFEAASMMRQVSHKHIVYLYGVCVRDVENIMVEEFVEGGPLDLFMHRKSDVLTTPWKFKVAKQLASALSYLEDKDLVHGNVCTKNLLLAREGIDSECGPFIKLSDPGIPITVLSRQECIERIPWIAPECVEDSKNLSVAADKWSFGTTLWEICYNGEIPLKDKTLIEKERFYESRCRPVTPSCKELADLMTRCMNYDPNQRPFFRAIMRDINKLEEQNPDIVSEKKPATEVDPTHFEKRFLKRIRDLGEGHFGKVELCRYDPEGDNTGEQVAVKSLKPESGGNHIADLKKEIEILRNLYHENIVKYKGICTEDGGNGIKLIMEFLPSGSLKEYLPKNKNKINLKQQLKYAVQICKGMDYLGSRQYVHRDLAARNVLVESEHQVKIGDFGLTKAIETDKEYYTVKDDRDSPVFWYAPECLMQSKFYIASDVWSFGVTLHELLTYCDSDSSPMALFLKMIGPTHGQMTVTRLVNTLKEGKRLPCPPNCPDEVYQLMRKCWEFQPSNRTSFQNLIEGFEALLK
Sequence of EPHB4 (P54760 16-987): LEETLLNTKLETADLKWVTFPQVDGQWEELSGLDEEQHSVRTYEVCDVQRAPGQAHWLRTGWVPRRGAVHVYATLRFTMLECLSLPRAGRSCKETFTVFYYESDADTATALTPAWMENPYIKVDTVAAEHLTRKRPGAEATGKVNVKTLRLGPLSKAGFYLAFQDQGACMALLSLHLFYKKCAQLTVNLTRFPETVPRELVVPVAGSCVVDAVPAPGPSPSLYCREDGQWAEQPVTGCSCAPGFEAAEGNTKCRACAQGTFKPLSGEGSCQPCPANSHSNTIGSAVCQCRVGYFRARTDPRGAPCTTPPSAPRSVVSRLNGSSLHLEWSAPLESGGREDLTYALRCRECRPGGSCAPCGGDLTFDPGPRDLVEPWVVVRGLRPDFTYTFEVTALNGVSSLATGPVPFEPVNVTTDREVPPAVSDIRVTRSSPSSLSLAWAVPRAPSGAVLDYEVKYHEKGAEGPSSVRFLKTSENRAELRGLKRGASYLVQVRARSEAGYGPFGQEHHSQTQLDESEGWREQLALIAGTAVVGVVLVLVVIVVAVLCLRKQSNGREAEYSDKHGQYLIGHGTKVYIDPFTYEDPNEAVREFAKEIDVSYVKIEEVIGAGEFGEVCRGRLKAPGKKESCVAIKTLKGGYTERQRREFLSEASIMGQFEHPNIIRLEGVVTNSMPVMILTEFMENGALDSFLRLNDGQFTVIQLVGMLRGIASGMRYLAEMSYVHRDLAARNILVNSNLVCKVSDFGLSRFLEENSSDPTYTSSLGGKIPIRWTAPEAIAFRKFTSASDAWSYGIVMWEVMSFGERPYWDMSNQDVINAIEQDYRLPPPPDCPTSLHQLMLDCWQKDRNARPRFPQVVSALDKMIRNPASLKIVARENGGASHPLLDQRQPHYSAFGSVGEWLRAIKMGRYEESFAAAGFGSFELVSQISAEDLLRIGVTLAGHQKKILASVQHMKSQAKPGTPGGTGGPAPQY
Sequence of FES (P07332 whole entry): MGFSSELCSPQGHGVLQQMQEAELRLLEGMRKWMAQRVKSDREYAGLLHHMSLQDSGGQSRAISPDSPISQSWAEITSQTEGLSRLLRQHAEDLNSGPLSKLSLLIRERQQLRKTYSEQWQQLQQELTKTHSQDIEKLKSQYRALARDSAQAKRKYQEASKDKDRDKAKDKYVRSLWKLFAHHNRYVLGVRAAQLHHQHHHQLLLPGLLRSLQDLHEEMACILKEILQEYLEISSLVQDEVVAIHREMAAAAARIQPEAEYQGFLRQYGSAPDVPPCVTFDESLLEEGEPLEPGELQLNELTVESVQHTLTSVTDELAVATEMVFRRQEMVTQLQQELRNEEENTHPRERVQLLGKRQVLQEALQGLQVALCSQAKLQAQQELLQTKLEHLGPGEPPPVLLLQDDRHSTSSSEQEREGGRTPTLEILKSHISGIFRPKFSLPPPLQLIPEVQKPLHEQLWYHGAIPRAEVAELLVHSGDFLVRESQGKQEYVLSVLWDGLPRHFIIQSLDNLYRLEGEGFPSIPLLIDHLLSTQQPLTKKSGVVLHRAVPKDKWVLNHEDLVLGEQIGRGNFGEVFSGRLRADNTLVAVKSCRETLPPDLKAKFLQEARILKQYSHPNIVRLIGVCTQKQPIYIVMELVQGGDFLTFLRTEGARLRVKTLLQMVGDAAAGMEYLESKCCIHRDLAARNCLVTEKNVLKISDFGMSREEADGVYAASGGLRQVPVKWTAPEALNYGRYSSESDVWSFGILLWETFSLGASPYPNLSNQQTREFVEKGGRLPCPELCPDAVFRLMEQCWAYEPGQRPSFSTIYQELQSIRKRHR
Sequence of EPHA2 (P29317 24-976): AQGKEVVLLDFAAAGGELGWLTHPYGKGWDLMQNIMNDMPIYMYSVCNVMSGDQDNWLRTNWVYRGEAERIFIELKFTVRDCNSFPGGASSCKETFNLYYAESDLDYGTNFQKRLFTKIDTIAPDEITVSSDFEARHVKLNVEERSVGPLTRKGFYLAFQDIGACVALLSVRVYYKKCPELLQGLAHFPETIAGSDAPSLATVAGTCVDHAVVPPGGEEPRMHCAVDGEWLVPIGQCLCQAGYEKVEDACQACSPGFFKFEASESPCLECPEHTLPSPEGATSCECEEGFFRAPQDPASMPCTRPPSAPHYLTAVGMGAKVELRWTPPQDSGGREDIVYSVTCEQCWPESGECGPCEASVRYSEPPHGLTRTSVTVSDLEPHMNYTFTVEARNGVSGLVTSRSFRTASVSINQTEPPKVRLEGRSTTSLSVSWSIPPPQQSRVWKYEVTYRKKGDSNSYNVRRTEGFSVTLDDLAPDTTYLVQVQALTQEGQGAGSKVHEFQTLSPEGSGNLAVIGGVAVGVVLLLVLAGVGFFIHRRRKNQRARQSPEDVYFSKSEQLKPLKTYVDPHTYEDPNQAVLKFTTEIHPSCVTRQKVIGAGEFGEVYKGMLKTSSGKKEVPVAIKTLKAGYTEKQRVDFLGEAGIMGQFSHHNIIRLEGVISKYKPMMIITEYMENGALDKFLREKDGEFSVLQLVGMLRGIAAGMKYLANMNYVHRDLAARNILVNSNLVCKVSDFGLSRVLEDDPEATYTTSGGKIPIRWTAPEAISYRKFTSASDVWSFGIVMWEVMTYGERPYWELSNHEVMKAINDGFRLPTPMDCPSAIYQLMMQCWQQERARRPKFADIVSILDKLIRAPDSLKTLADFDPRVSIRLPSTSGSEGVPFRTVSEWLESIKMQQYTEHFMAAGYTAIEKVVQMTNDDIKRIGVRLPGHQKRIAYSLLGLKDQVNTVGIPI

SMILES: CCS(=O)(=O)Cc1cnc(Oc2c(F)cc(F)cc2OCCCCOc2ccc(/C=C/c3cc(OC)cc(OC)c3)cc2)c(-c2cc(C)c3c(=O)[nH]ccn23)c1 [BST-4]
- IC50 (ROS1): > 10 µM
- inhibition at 1 µM (ROS1): 0.97%
- IC50 (JAK1): > 10 µM
- inhibition at 1 µM (JAK1): 1.21%
- IC50 (BTK): > 10 µM
- inhibition at 1 µM (BTK): 0.11%
- IC50 (NTRK2): > 10 µM
- inhibition at 1 µM (NTRK2): 1.22%
- IC50 (LTK): > 10 µM
- inhibition at 1 µM (LTK): 0.21%
- IC50 (ZAP70): > 10 µM
- inhibition at 1 µM (ZAP70): 0.68%
- IC50 (EPHB4): > 10 µM
- inhibition at 1 µM (EPHB4): 0.97%
- IC50 (LYN): > 10 µM
- inhibition at 1 µM (LYN): 1.96%
- IC50 (SRMS): > 10 µM
- inhibition at 1 µM (SRMS): 0.53%
- IC50 (EPHB3): > 10 µM
- inhibition at 1 µM (EPHB3): 0.98%
- IC50 (FES): > 10 µM
- inhibition at 1 µM (FES): 0.05%
- IC50 (EPHB2): > 10 µM
- inhibition at 1 µM (EPHB2): 0.51%
- IC50 (FGFR2): > 10 µM
- inhibition at 1 µM (FGFR2): 0.45%
- IC50 (FGR): > 10 µM
- inhibition at 1 µM (FGR): 0.28%
- IC50 (EPHA5): > 10 µM
- inhibition at 1 µM (EPHA5): 3.17%
- IC50 (TYRO3): > 10 µM
- inhibition at 1 µM (TYRO3): 0.04%
- IC50 (MERTK): > 10 µM
- inhibition at 1 µM (MERTK): 0.07%
- IC50 (EPHA2): > 10 µM
- inhibition at 1 µM (EPHA2): 0.5%
- IC50 (JAK3): > 10 µM
- inhibition at 1 µM (JAK3): 0.39%
- IC50 (EPHA7): > 10 µM
- inhibition at 1 µM (EPHA7): 0.91%
- IC50 (HCK): > 10 µM
- inhibition at 1 µM (HCK): 0.86%
- IC50 (FLT3): > 10 µM
- inhibition at 1 µM (FLT3): 0.52%
- IC50 (FLT4): > 10 µM
- inhibition at 1 µM (FLT4): 1.82%
- IC50 (FGFR4): > 10 µM
- inhibition at 1 µM (FGFR4): 0.68%
- IC50 (EPHA3): > 10 µM
- inhibition at 1 µM (EPHA3): 0.89%
- IC50 (PTK2): > 10 µM
- inhibition at 1 µM (PTK2): 1.48%
- IC50 (BLK): > 10 µM
- inhibition at 1 µM (BLK): 0.54%
- IC50 (ABL1): > 10 µM
- inhibition at 1 µM (ABL1): 0.31%
- IC50 (SYK): > 10 µM
- inhibition at 1 µM (SYK): 1.92%
- IC50 (AXL): > 10 µM
- inhibition at 1 µM (AXL): 1.83%
- IC50 (RET): > 10 µM
- inhibition at 1 µM (RET): 0.41%
- IC50 (TNK2): > 10 µM
- inhibition at 1 µM (TNK2): 0.93%
